pIC50: −log10 of the molar value. “Also recorded” adds a separate entry of the source. Values belong to the compound of their own block, whether it stands above or below them.
Tests used:
[1] = tested on: melanoma B16F10 cells; assay: IncuCyte S3 live-cell proliferation (confluence), B16F10; type: cell-based
Protocol: (§1) FIG. 1: Hematological tumors are more sensitive to GSK126 than solid tumors. (A) Proliferation of B16F10, Huh7 and SMMC7721 cells in GSK126 (10-20 μM) treatment group was monitored by Incucyte S3, with 6 replicates per group; (B) viability of Daudi and THP-1 cells after GSK126 (200 nM-24 μM) treatment for 24 h and 48 h was measured by CCK-8 assay, with 5 replicates per group; (C) western blot analysis (WB) of B16F10 cells 48 h after the treatment without or with GSK126 (6 μM, 12 μM), with H3 used as an internal reference for histone. 5 to 6 replicates were established for each group, with *P<0.05, **P<0.01, and ***P<0.001, and ns for no statistical difference.
(§2) In order to accurately assess the responsiveness of solid tumor cells to EZH2 inhibitors, the effects of GSK126 at different concentrations on the proliferation of melanoma B16F10 cells and hepatoma Huh7 and SMMC-7721 cells were initially detected by IncuCyte S3×Live-Cell Analysis System.
(§3) • (1) Cells in the logarithmic growth phase were digested with 0.25% trypsin and the digestion was terminated by the addition of serum-containing medium. It was then centrifuged at 200 g for 5 min; • (2) The single cell suspension at the corresponding concentration was prepared by a microscopic counting method, and then added into a 96-well culture plate, so that the volume of the culture medium in each well was 150 μL (about 5000 cells). […]

[2] = tested on: hepatoma Huh7 cells; assay: IncuCyte S3 live-cell proliferation (confluence), Huh7; type: cell-based
Protocol: as §1, §2, §3

[3] = tested on: hepatoma SMMC-7721 cells; assay: IncuCyte S3 live-cell proliferation (confluence), SMMC-7721; type: cell-based
Protocol: as §1, §2, §3

[4] = tested on: Burkitt lymphoma cells (Daudi); assay: CCK-8 cell proliferation/viability assay, Daudi; type: cell-based; details: for cell viability inhibited by GSK126, on fatty acid supplementation: with GSK126, CCK-8
Protocol: as §1
(§4) FIG. 5: Effect of GSK126 on the metabolic profile of Daudi cells. (A) Orthogonal partial least squares discriminant analysis (OPLS-DA) score plot based on metabolic analysis (6 replicates per group). C: control, G: GSK126 treatment. (B) Score plot for validating the OPLS-DA model (R2Y=0.973; Q2Y=0.931). (C) The number of metabolites of each category in metabolomics. […] (E) Viability of Daudi cells after palmitic acid treatment was analyzed by CCK-8 kit (3 replicates per group). 3-6 replicates per group, *P<0.05, **P<0.01.
(§5) FIG. 6: The combination with an SCD1 inhibitor enhances the inhibitory effect of GSK126 on cancer cells. (A) Differential metabolites between DMSO and GSK126-treated Daudi cells. […] Metabolite categories are shown in different colors. […] (C) The mRNA levels of lipid metabolism genes in GSK126-treated Daudi cells were detected by RT-qPCR (3 replicates per group). (D) Viability of GSK126 and palmitinic acid-treated Daudi cells was analyzed by CCK-8 assay kit (5 replicates per group). (E) Viability of GSK126 and stearic acid-treated Daudi cells was analyzed by CCK-8 assay kit (5 replicates per group). (F) Proliferation curves of B16F10 and SMMC7721 cells treated with GSK126 and MF-438 were monitored by IncuCyte S3 (5 replicates per group). (G) CCK-8 assay kit detects the viability of B16F10 and SMMC7721 cells treated with GSK126 and MF-438. CI is calculated by CompuSyn software. CI<0.9 indicates synergism and CI>1.1 indicates antagonism. (H) Schematic diagram of mouse tumor-bearing experiment. (I-J) Tumor weight (I) and tumor growth curve (J) of the mice loaded with B16F10 cells. The tumor volume was measured with a vernier caliper every 2 days. Tumor volume=(length*width*width)/2. (K) Representative tumor pictures of all experimental groups. 3-8 replicates per group, *P<0.05, **P<0.01, ***P<0.001.

[5] = tested on: hematological tumor cells THP-1; assay: CCK-8 cell proliferation/viability assay, THP-1; type: cell-based; details: 10 μM, 24 h and 48 h
Protocol: as §1

[6] = tested on: H3K27me3 level in B16F10 cells; assay: Western blot of H3K27me3 in B16F10 cells; type: cell-based; details: 6 μM, 48 h, WB
Protocol: as §1

[7] = tested on: melanoma cells B16F10; assay: Cell scratch (migration) assay, B16F10; type: cell-based; details: B16F10, 10 μM, 36 h of culture, vs control group
Protocol: (§6) FIG. 2: Melanoma cells B16F10 are less sensitive to GSK126. (A) Cell scratch assay, showing the effect of GSK126 (10 μM) treatment on the migration capability of B16F10 cells, with 3 replicates per group; (B-C) the effect of GSK126 (10, 13, and 15 μM) on the apoptosis rate of B16F10 cells, as examined by flow cytometry […] and Annexin V staining assay. 3 replicates were established for each group, with *P<0.05, **P<0.01, and ***P<0.001, and ns for no statistical difference.
(§7) Next, to further validate the effect of GSK126 at 10 μM on melanoma cells B16F10, scratch assay was conducted. […] In addition, to assess the anti-survival effect of GSK126, B16F10 cells were treated by GSK126 at different concentrations for different durations, and the apoptosis rate of the cells was analyzed by flow cytometry (section B of FIG. 2) and live-cell fluorescence imaging (section C of FIG. 2).

[8] = tested on: B16F10 cells; assay: Apoptosis by flow cytometry and Annexin V live-cell imaging, B16F10; type: cell-based; details: B16F10, 10 μM
Protocol: as §6, §7

[9] = tested on: melanoma B16F10 cells; assay: Metabolite (fatty acid) levels in GSK126-treated B16F10 cells; type: cell-based; details: GSK126 group
Text: FIG. 3: GSK126 results in significant elevated levels of 6 fatty acids in melanoma B16F10 cells.
Among the metabolites with significant changes, the levels of many fatty acids increased in the GSK126 group. There are five polyunsaturated fatty acids, including α-linolenic acid, DHA, EPA, linoleic acid, and γ-linolenic acid) and one monounsaturated fatty acid, i.e., 10Z-heptadienoic acid (FIG. 3).

[10] = tested on: ACLY, FASN, and SCD in SMMC7721; assay: RT-qPCR and WB of fatty acid synthesis genes, SMMC7721; type: cell-based
Text: (§8) FIG. 4: Lipid accumulation in mice after GSK126 treatment. (A) H & E and oil red O staining of the liver tissue sections of the tumor-bearing mice in the control group and the GSK126 treatment group, in which the statistical results of negative or positive staining area were shown on the right (3 replicates per group); (B) TG level in the serum of the tumor-bearing mice in the control group and the GSK126 treatment group (5 replicates per group); (C-D) mRNA (C) and protein (D) levels of the genes related to fatty acid anabolism in the GSK126-treated HCC cells, as detected by RT-qPCR and WB (3 replicates per group). 3 to 5 replicates were established for each group, with *P<0.05, **P<0.01.
(§9) C57BL/6 mice of 6-8 weeks old were subcutaneously implanted with B16F10 cells and treated with GSK126 again. […] Therefore, the expression of the fatty acid synthesis-related genes in GSK126-treated hepatocellular carcinoma (HCC) cell lines SMMC7721 and Huh7 was further detected.

[11] = tested on: ACLY, FASN, and SCD in Huh7; assay: RT-qPCR and WB of fatty acid synthesis genes, Huh7; type: cell-based
Text: as §8, §9

[12] = tested on: Daudi cells; assay: UPLC-MS/MS metabolomics of Daudi cells; type: cell-based; details: GSK126 6 μM vs control
Protocol: as §4, §5
In order to verify that the lipid metabolism of cancer cells is the key factor affecting the sensitivity of the EZH2 inhibitor, UPLC-MS/MS system was used to analyze the metabolomics of the Daudi cells treated with GSK126 at a concentration of 6 μM (close to the IC50 value). The differences in the metabolome between the cells in the control group and the GSK126 treatment group were obvious by OPLS-DA analysis (sections A and B of FIG. 5). There were 71 metabolites with significant changes and VIP values greater than 1.0.

[13] = tested on: ELOVL2, SCD1, and FASN in Daudi cells; assay: RT-qPCR of lipid metabolism genes in Daudi cells; type: cell-based; details: mRNA
Protocol: as §5, with “***P<0.001. […]” for “***P<0.001.”

[14] = tested on: hematologic cancer cell lines; details: most hematologic cancer cell lines; many studies; read-out: IC50 (half-maximal inhibitory concentration); cited from earlier work
[15] = GSK126 at different concentrations (10-20 μM)

pIC50 ([4]; Daudi cells): ~5.22
Structure (SMILES): CC[C@H](C)n1cc(C)c2c(C(=O)NCc3c(C)cc(C)[nH]c3=O)cc(-c3ccc(N4CCNCC4)nc3)cc21 [GSK126]
cell proliferation ([1]; GSK126 10 μM): less effective; also recorded: could not be effectively inhibited | cell proliferation [1, 15]: inhibited cell proliferation in a dose-dependent manner | cell proliferation ([2]; GSK126 10 μM): less effective | cell proliferation [2, 15]: inhibited cell proliferation in a dose-dependent manner | cell proliferation ([3]; GSK126 10 μM): less effective | cell proliferation [3, 15]: inhibited cell proliferation in a dose-dependent manner | sensitivity of Daudi cells ([4]; 1 μM, CCK-8): very sensitive | proliferation of Daudi cells ([4]; 10 μM, 24 h and 48 h, CCK-8): significantly inhibited | proliferation of THP-1 cells [5]: significantly inhibited | H3K27me3 level [6]: significantly down-regulated | cell migration [7]: did not effectively inhibit cell migration | induction of apoptosis [8]: limited capability to induce apoptosis | levels of fatty acids (five polyunsaturated, one monounsaturated) [9]: increased | mRNA and protein levels of ACLY, FASN, and SCD [10]: significantly elevated | mRNA and protein levels of ACLY, FASN, and SCD [11]: significantly elevated | down-regulated metabolites [12]: 6 | fatty acids (incl. ricinoleic acid, DPA n-6) [12]: four fatty acids decreased | metabolites with significant changes and VIP values greater than 1.0 [12]: 71 | up-regulated metabolites [12]: 65 | expression of ELOVL2, SCD1, and FASN [13]: did not upregulate | pIC50 [14]: > 6.00

Structure (SMILES): CCCCCCCCCCCCCCCCCC(=O)O [stearic acid]
cell proliferation (viability) on fatty acid addition ([4]; Daudi cells, CCK-8): moderately promoted | cell viability inhibited by GSK126, on fatty acid supplementation ([4]; Daudi cells): recovered the cell viability inhibited by GSK126 to varying degrees

Structure (SMILES): CCCCCCCCCCCCCCCC(=O)O [palmitic acid]
cell proliferation (viability) on fatty acid addition ([4]; Daudi cells, CCK-8): moderately promoted | cell viability inhibited by GSK126, on fatty acid supplementation ([4]; Daudi cells): recovered the cell viability inhibited by GSK126 to varying degrees

Reference: patent US20240325385A1, “ANTI-TUMOR PHARMACEUTICAL COMPOSITION COMPRISING EZH2 INHIBITOR AND SCD1 INHIBITOR AND USE THEREOF” (PEKING UNIVERSITY THIRD HOSPITAL, priority 2021, published 2024)
